Experiments:
cells (nuclei count) = conditions: for Relative cell count to DMSO controls, Average 1 μM / Relative cell count to DMSO controls, Average 5 μM / Relative cell count to DMSO controls, Average 10 μM / Relative cell count to DMSO controls, Average 25 μM / Relative cell count to DMSO controls, Average 50 μM: toxicity data, 100=DMSO control; for Relative cell count to DMSO controls, Average (for correlation analysis): average value over the 5 tested concentrations (1 to 50 uM)
SARS2 = format: cell-based, SARS-CoV-2; conditions: for Percentage Inhibition Average 1 μM / Screening data (Relative infection to DMSO controls) Average 1 μM: SARS2, 1 μM; for Screening data (Relative infection to DMSO controls) Average 1 μM / Screening data (Relative infection to DMSO controls) Average 5 μM / Screening data (Relative infection to DMSO controls) Average 10 μM / Screening data (Relative infection to DMSO controls) Average 25 μM / Screening data (Relative infection to DMSO controls) Average 50 μM / Average (relative infection to DMSO over the 5 tested concentrations): 100=DMSO control; for Percentage Inhibition Average 5 μM / Screening data (Relative infection to DMSO controls) Average 5 μM: SARS2, 5 μM; for Percentage Inhibition Average 10 μM / Screening data (Relative infection to DMSO controls) Average 10 μM: SARS2, 10 μM; for Percentage Inhibition Average 25 μM / Screening data (Relative infection to DMSO controls) Average 25 μM: SARS2, 25 μM; for Percentage Inhibition Average 50 μM / Screening data (Relative infection to DMSO controls) Average 50 μM: SARS2, 50 μM; for Average (relative infection to DMSO over the 5 tested concentrations): SARS2, average over 1 to 50 uM

SMILES	Relative cell count to DMSO controls, Average 1 μM (cells (nuclei count))	Relative cell count to DMSO controls, Average 5 μM (cells (nuclei count))	Relative cell count to DMSO controls, Average 10 μM (cells (nuclei count))	Relative cell count to DMSO controls, Average 25 μM (cells (nuclei count))	Relative cell count to DMSO controls, Average 50 μM (cells (nuclei count))	Relative cell count to DMSO controls, Average (for correlation analysis) (cells (nuclei count))	Percentage Inhibition Average 1 μM (SARS2)	Screening data (Relative infection to DMSO controls) Average 1 μM (SARS2)	Percentage Inhibition Average 5 μM (SARS2)	Screening data (Relative infection to DMSO controls) Average 5 μM (SARS2)	Percentage Inhibition Average 10 μM (SARS2)	Screening data (Relative infection to DMSO controls) Average 10 μM (SARS2)	Percentage Inhibition Average 25 μM (SARS2)	Screening data (Relative infection to DMSO controls) Average 25 μM (SARS2)	Percentage Inhibition Average 50 μM (SARS2)	Screening data (Relative infection to DMSO controls) Average 50 μM (SARS2)	Average (relative infection to DMSO over the 5 tested concentrations) (SARS2)
CC1=C(C(=O)NCc2ccccc2)C(c2scc3c2OCCO3)NC(=O)N1 (stereo not shown) [SILCS66]	98.81	109.01	93.98	90.79	84.65	95.45	−3.65%	103.65	38.92%	61.08	−7.16%	107.16	−12.41%	112.41	−28.18%	128.18	102.50
COc1ccc(C2NC(=O)NC(C)=C2C(=O)NCC2CCC2)cc1OC (stereo not shown) [SILCS64]	103.13	119.2	92.78	84.89	75.66	95.13	20.42%	79.58	66.48%	33.52	−11.17%	111.17	−30.68%	130.68	−58.69%	158.69	102.73
